From patent US11136296B2, “Substituted N-arylethyl-2-arylquinoline-4-carboxamides and use thereof” (Bayer Aktiengesellschaft, priority 2017, dated 2021)

Biological target: FP receptor (Homo sapiens (Human), UniProt P43088)
Assay: In vitro test of inhibition of human FP receptor activity (PGF2α-induced calcium flux in FP-expressing CHEM1 cells)
Format: cell-based
Details: PGF2α-induced (2 nM) calcium flux in FP-expressing CHEM1 cells; some as mean values from multiple determinations
From the text: Table 1 below lists the IC50 values from this assay for individual working examples of the invention (some as mean values from multiple independent individual determinations): […]

FP receptor, sequence (P43088 whole entry): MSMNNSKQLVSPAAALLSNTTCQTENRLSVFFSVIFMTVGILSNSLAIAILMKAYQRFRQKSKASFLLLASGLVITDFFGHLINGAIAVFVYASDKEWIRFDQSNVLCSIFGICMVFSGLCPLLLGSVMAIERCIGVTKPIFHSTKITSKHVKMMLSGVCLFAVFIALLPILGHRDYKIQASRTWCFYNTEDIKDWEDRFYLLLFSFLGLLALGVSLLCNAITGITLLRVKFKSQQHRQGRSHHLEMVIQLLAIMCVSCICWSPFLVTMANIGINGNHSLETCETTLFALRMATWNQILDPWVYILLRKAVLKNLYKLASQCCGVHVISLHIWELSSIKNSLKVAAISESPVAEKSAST

| Compound | IC50 |
| --- | --- |
| Cc1c(-c2ccccc2)nc2ccc(Br)cc2c1C(=O)NCC(C)(C(=O)O)c1ccccc1 (single isomer, unassigned; (+)) [Example 15, (+)-3-{[(6-Bromo-3-methyl-2-phenylquinolin-4-yl)carbonyl]amino}-2-methyl-2-phenylpropanoic Acid] | 190 nM |
| Cc1c(-c2ccccc2)nc2ccc(Br)cc2c1C(=O)NCC(C)(C(=O)O)c1ccccc1F (single isomer, unassigned; (+)) [Example 30, (+)-3-{[(6-Bromo-3-methyl-2-phenylquinolin-4-yl)carbonyl]amino}-2-(2-fluorophenyl)-2-methylpropanoic Acid] | 340 nM |
| Cc1c(-c2ccccc2)nc2ccc(Br)cc2c1C(=O)NCC(C)(C(=O)O)c1ccccc1Cl (single isomer, unassigned; (+)) [Example 37, (+)-3-{[(6-Bromo-3-methyl-2-phenylquinolin-4-yl)carbonyl]amino}-2-(2-chlorophenyl)-2-methylpropanoic Acid] | 160 nM |
| Cc1c(-c2ccccc2)nc2ccc(Br)cc2c1C(=O)NCC(C)(C(=O)O)c1cccc(C(F)(F)F)c1 (single isomer, unassigned; (+)) [Example 43, (+)-3-{[(6-Bromo-3-methyl-2-phenylquinolin-4-yl)carbonyl]amino}-2-methyl-2-[3-(trifluoromethyl)phenyl]propanoic Acid] | 140 nM |
| Cc1c(-c2ccccc2)nc2ccc(Br)cc2c1C(=O)NCC(C(=O)O)c1cccc(Cl)c1 (single isomer, unassigned; (+)) [Example 49, (+)-3-{[(6-Bromo-3-methyl-2-phenylquinolin-4-yl)carbonyl]amino}-2-(3-chlorophenyl)propanoic Acid] | 69 nM |
| COc1ccccc1C(O)(CNC(=O)c1c(C)c(-c2ccccc2)nc2ccc(Br)cc12)C(=O)O (single isomer, unassigned; (+)) [Example 55, (+)-3-{[(6-Bromo-3-methyl-2-phenylquinolin-4-yl)carbonyl]amino}-2-hydroxy-2-(2-methoxyphenyl)propanoic Acid] | 78 nM |
| COc1cccc(F)c1C(CNC(=O)c1c(C)c(-c2ccccc2)nc2ccc(Br)cc12)C(=O)O (single isomer, unassigned; (+)) [Example 58, (+)-3-{[(6-Bromo-3-methyl-2-phenylquinolin-4-yl)carbonyl]amino}-2-(2-fluoro-6-methoxyphenyl)propanoic Acid] | 9.7 nM |
| Cc1c(-c2ccccc2)nc2ccc(Br)cc2c1C(=O)NCC(CC(=O)O)c1ccccc1 (single isomer, unassigned; (+)) [Example 65, (+)-4-{[(6-Bromo-3-methyl-2-phenylquinolin-4-yl)carbonyl]amino}-3-phenylbutanoic Acid] | 220 nM |
| Cc1ccccc1C(CNC(=O)c1c(C)c(-c2ccccc2)nc2ccc(Br)cc12)CC(=O)O (single isomer, unassigned; (+)) [Example 77, (+)-4-{[(6-Bromo-3-methyl-2-phenylquinolin-4-yl)carbonyl]amino}-3-(2-methylphenyl)butanoic Acid] | 85 nM |
| Cc1ccc(C(CNC(=O)c2c(C)c(-c3ccccc3)nc3ccc(Br)cc23)CC(=O)O)cc1 (single isomer, unassigned; (+)) [Example 91, (+)-4-{[(6-Bromo-3-methyl-2-phenylquinolin-4-yl)carbonyl]amino}-3-(4-methylphenyl)butanoic Acid] | 460 nM |

The next lines start with the values.

| IC50 | Compound |
| --- | --- |
| 7.2 nM | COc1ccccc1C(CNC(=O)c1c(C)c(-c2ccccc2)nc2ccc(Br)cc12)C(=O)O (single isomer, unassigned; (+)) [Example 9, (+)-3-{[(6-Bromo-3-methyl-2-phenylquinolin-4-yl)carbonyl]amino}-2-(2-methoxyphenyl)propanoic Acid] |
| 120 nM | CCC(CNC(=O)c1c(C)c(-c2ccccc2)nc2ccc(Br)cc12)(C(=O)O)c1ccccc1 (single isomer, unassigned; (+)) [Example 18, (+)-2-({[(6-Bromo-3-methyl-2-phenylquinolin-4-yl)carbonyl]amino}methyl)-2-phenylbutanoic Acid] |
| 97 nM | Cc1c(-c2ccccc2)nc2ccc(Br)cc2c1C(=O)NCC(O)(C(=O)O)c1ccccc1 (single isomer, unassigned; (+)) [Example 20, (+)-3-{[(6-Bromo-3-methyl-2-phenylquinolin-4-yl)carbonyl]amino}-2-hydroxy-2-phenylpropanoic Acid] |
| 190 nM | Cc1c(-c2ccccc2)nc2ccc(Br)cc2c1C(=O)NCC(C)(C(=O)O)c1c(F)cccc1F (single isomer, unassigned; (+)) [Example 33, (+)-3-{[(6-Bromo-3-methyl-2-phenylquinolin-4-yl)carbonyl]amino}-2-(2,6-difluorophenyl)-2-methylpropanoic Acid] |
| 34 nM | Cc1c(-c2ccccc2)nc2ccc(Br)cc2c1C(=O)NCC(F)(C(=O)O)c1ccccc1 (single isomer, unassigned; (+)) [Example 40, (+)-3-{[(6-Bromo-3-methyl-2-phenylquinolin-4-yl)carbonyl]amino}-2-fluoro-2-phenylpropanoic Acid] |
| 230 nM | COc1cccc(C(CNC(=O)c2c(C)c(-c3ccccc3)nc3ccc(Br)cc23)C(=O)O)c1 (single isomer, unassigned; (+)) [Example 46, (+)-3-{[(6-Bromo-3-methyl-2-phenylquinolin-4-yl)carbonyl]amino}-2-(3-methoxyphenyl)propanoic Acid] |
| 71 nM | Cc1cccc(C(CNC(=O)c2c(C)c(-c3ccccc3)nc3ccc(Br)cc23)C(=O)O)c1 (single isomer, unassigned; (+)) [Example 52, (+)-3-{[(6-Bromo-3-methyl-2-phenylquinolin-4-yl)carbonyl]amino}-2-(3-methylphenyl)propanoic Acid] |
| 120 nM | COc1ccccc1C(C)(CNC(=O)c1c(C)c(-c2ccccc2)nc2ccc(Br)cc12)C(=O)O (single isomer, unassigned; (+)) [Example 60, (+)-3-{[(6-Bromo-3-methyl-2-phenylquinolin-4-yl)carbonyl]amino}-2-(2-methoxyphenyl)-2-methylpropanoic Acid] |
| 230 nM | Cc1c(-c2ccccc2)nc2ccc(Br)cc2c1C(=O)NCC(C)(C(=O)O)c1c(F)cccc1Cl (single isomer, unassigned; (+)) [Example 61, (+)-3-{[(6-Bromo-3-methyl-2-phenylquinolin-4-yl)carbonyl]amino}-2-(2-chloro-6-fluorophenyl)-2-methylpropanoic Acid] |
| 370 nM | Cc1c(-c2ccccc2)nc2ccc(Br)cc2c1C(=O)NCC(CC(=O)O)c1ccc(Cl)cc1 (single isomer, unassigned; (+)) [Example 67, (+)-4-{[(6-Bromo-3-methyl-2-phenylquinolin-4-yl)carbonyl]amino}-3-(4-chlorophenyl)butanoic Acid] |
| 240 nM | Cc1c(-c2ccccc2)nc2ccc(Br)cc2c1C(=O)NCC(C)(CC(=O)O)c1ncccc1Cl (single isomer, unassigned; (+)) [Example 86, (+)-4-{[(6-Bromo-3-methyl-2-phenylquinolin-4-yl)carbonyl]amino}-3-(3-chloropyridin-2-yl)-3-methylbutanoic Acid] |
| 27 nM | Cc1c(-c2ccccc2)nc2ccc(Br)cc2c1C(=O)NCC(CC(=O)O)c1c(F)cccc1Cl (single isomer, unassigned; (+)) [Example 89, (+)-4-{[(6-Bromo-3-methyl-2-phenylquinolin-4-yl)carbonyl]amino}-3-(2-chloro-6-fluorophenyl)butanoic Acid] |
